{
  "source": "patent US11986446B2",
  "about": "“Method of administration of gamma hydroxybutyrate with monocarboxylate transporters” (priority 2013, dated 2024)",
  "key": {"[1]": {"system": "healthy subjects"}, "[2]": {"system": "healthy male subjects", "format": "in vivo, human"}, "[3]": {"system": "healthy adults", "experiment": "Ibuprofen combined with Xyrem, PD (KSS and CDR System tasks)", "format": "in vivo, human", "experimental": "The effects of Ibuprofen were evaluated when combined with Xyrem® in a manner similar to the above. […] However, it was observed that renal excretion of Xyrem® doubled upon concomitant administration of Ibuprofen and Xyrem®."}, "[4]": {"experiment": "Phase 1 crossover study of Xyrem with and without divalproex sodium, pharmacokinetics of GHB", "format": "in vivo, human", "source_text": "This study is designed to compare the pharmacokinetic (PK) and pharmacodynamic (PD) endpoints of Xyrem® with and without co-administration of divalproex sodium extended-release tablets. The crossover design allows within-subject comparisons of the PK and PD of Xyrem® dosed alone and in combination with divalproex sodium extended-release tablets. PD parameters include the following: Cognitive Drug Research (CDR) System tasks: Karolinska Sleepiness Scale (KSS), Simple Reaction Time (SRT), Digit Vigilance (DV), Choice Reaction Time (CRT), Tracking and Numeric Working Memory (NWM).\nThis was a Phase 1, randomized, double-blind, placebo-controlled, five-period, crossover study in healthy male subjects. The study was conducted in approximately 24 healthy subjects to ensure completion of 16 subjects. Following Screening and Baseline procedures, eligible subjects were randomized to receive Xyrem® and Xyrem® placebo in a crossover fashion in Periods 1 and 2; were dosed with divalproex sodium extended-release tablets for 10 consecutive days in Period 3; and while continuing to take divalproex sodium extended-release tablets, were randomized to receive Xyrem® and Xyrem® placebo in a crossover fashion in Periods 4 and 5 (Table 1).\nSubjects were randomized to receive two 3 g doses of Xyrem® or Xyrem® placebo 4 hours apart in a crossover fashion at approximately 9 AM (first dose) and 1 PM (second dose) on Days 1 and 3. PK and PD parameters were evaluated during the 24 hours postdose.\nBlood samples (4 mL) for sodium oxybate concentrations were collected at predose and at specified time-points up to 12 hours after the first dose of Xyrem® or Xyrem® placebo on Days 1 and 3. A PD Battery including the Karolinska Sleepiness Scale, Simple Reaction Time task, Digit Vigilance task, Choice Reaction Time task, Tracking task, and Numeric Working Memory task was administered at planned timepoints up to X hours after first dose (X hours after second dose), and safety were monitored at specified timepoints on Days 1 and 3 as well as throughout the periods.\nAll subjects received divalproex sodium extended-release tablets 1250 mg at approximately 8 AM on Days 5 through 14. Blood samples (4 mL) for valproic acid concentrations were collected before the divalproex sodium dose (to determine trough concentration for assessment of steady state) on Days 13 and 14. Safety was monitored at specified timepoints as well as throughout the period.\nSubjects continued taking 1250 mg divalproex sodium extended-release tablets at approximately 8 AM on Days 15 through 18. Subjects were also randomized to receive two 3 g doses of Xyrem® or Xyrem® placebo in a crossover fashion at approximately 9 am (first dose) and 1 pm (second dose) on Days 15 and 18. The first dose of Xyrem® or Xyrem® placebo was taken approximately 1 hour after dosing with divalproex sodium extended-release tablets, and the second dose of Xyrem® or Xyrem® placebo was taken 4 hours after the first Xyrem®/Xyrem® placebo dose.\nBlood samples (4 mL) to measure plasma sodium oxybate concentrations were collected at pre Xyrem®/Xyrem® placebo dose and at specified timepoints after the first Xyrem® or Xyrem® placebo dose on Days 15 and 18. Blood samples (4 mL) to measure plasma valproic acid concentrations were collected pre divalproex sodium dose and at specified timepoints after the dose of divalproex sodium extended-release tablets on Day 15 and 18. […]"}, "[5]": {"conditions": "alcohol dependent patients, oral administration; cited from earlier work"}, "[6]": {"conditions": "healthy volunteers; 12.5, 25, and 50 mg/kg; cited from earlier work"}, "[7]": {"experiment": "Ibuprofen combined with Xyrem, pharmacokinetics of GHB"}, "[8]": {"conditions": "GHB and divalproate concomitantly administered, statistically significant"}, "[9]": {"conditions": "GHB co-administered with valproate, attributed to GHB dehydrogenase inhibition"}},
  "note": "Where two headings read alike, the source gives them in different places.",
  "data": [
    {"molecule": "O=C(O)Cc1ccccc1Nc1c(Cl)cccc1Cl", "note": "[diclofenac, 2-(2,6-dichloranilino) phenylacetic acid]", "values": [
      {"measurement": "effect of diclofenac on the effects of Xyrem on Power of Attention, simple and choice reaction time", "setting": "[1]; co-dosed with Xyrem, during the hour after the first dose of Xyrem", "result": "significantly reduced the effects of the compound"},
      {"measurement": "effect on sleepiness or cognitive function", "setting": "[1]; diclofenac alone (50 mg qid + Xyrem placebo)", "result": "no effect on sleepiness or cognitive function"},
      {"measurement": "interaction on feelings of sleepiness", "setting": "[1]; diclofenac co-dosed with Xyrem", "result": "no interaction"},
      {"measurement": "protective effect on subjects ratings of alertness", "setting": "[1]; diclofenac co-dosed with Xyrem", "result": "not seen"},
      {"measurement": "impairments (interaction) over the hour following the first dose of Xyrem", "setting": "[1]; diclofenac co-dosed with Xyrem vs Xyrem alone", "result": "impairments being notably smaller"},
      {"measurement": "greater cognitive impairment or sleepiness on any measure", "setting": "[1]; in vivo", "result": "no evidence on any measure of greater cognitive impairment or sleepiness"}
    ]},
    {"molecule": "CCCC(CCC)C(=O)O", "note": "[Divalproex sodium, 2-propylvaleric acid]", "values": [
      {"measurement": "effects on cognitive function or sleepiness", "setting": "[2]; in vivo", "result": "no consistent or notable effects on cognitive function or sleepiness"}
    ]},
    {"molecule": "CC(C)Cc1ccc(C(C)C(=O)O)cc1", "note": "(centres unmarked) [Ibuprofen, iso-butyl-propanoic-phenolic acid]", "values": [
      {"measurement": "Karolinska Sleepiness Scale, Simple Reaction Time, Digit Vigilance, Choice Reaction Time, Tracking and Numeric Working Memory", "setting": "[3]", "result": "No differences were seen"}
    ]},
    {"molecule": "O=C(O)CCCO", "note": "[Xyrem®, sodium oxybate]", "values": [
      {"measurement": "PD effects", "setting": "[2]; GHB and divalproate concomitantly administered", "result": "more pronounced effects with concomitant administration"},
      {"measurement": "sleepiness, attention, working memory and tracking task performance", "setting": "[2]; Xyrem alone, two 3 g doses, healthy volunteers", "result": "induces sleepiness and produces impairments to attention, working memory and performance on a tracking task"},
      {"measurement": "Tracking Distance from Target, change from baseline", "setting": "[2]; Xyrem and divalproex sodium together (A+C) vs Xyrem alone (A), at 4 and 8 hours", "result": "statistically significant difference by a slightly delayed recovery for the combination"},
      {"measurement": "Numeric Working Memory Sensitivity Index, change from baseline", "setting": "[2]; Xyrem and divalproex sodium together (A+C) vs Xyrem alone (A), at 4.5 through 8 hours", "result": "showed a difference"},
      {"measurement": "Continuity of Attention, change from baseline", "setting": "[2]; Xyrem and divalproex sodium together (A+C) vs Xyrem alone (A), at 4 hours and 8 hours", "result": "slightly delayed recovery for the combination"},
      {"measurement": "Digit Vigilance Accuracy, change from baseline", "setting": "[2]; Xyrem and divalproex sodium together vs Xyrem alone, at 2.5 and 4 hours", "result": "statistically reliably different greater impairment to Xyrem® alone"},
      {"measurement": "impairments over time", "setting": "[2]; Xyrem dosed with divalproex sodium vs divalproex sodium alone (compared with Xyrem vs its placebo)", "result": "more consistent statistically significant impairments over time were seen with the combination"},
      {"measurement": "impairments to cognitive function and sleepiness", "setting": "[2]; co-administration of Xyrem and divalproex vs Xyrem alone", "result": "greater impairments to cognitive function and sleepiness than were seen with Xyrem® alone"},
      {"measurement": "Numeric Working Memory Mean Reaction Time, change from baseline", "setting": "[2]; in vivo", "result": "statistically significant differences at 2.5, 5 and 8 hours when the combination produced greater impairment"},
      {"measurement": "Simple Reaction Time Mean, change from baseline", "setting": "[2]; in vivo", "result": "statistically reliably greater impairments than Xyrem® alone"},
      {"measurement": "renal clearance, increased", "setting": "[4]; [8]", "result": 30, "unit": "%"},
      {"measurement": "systemic exposure (plasma AUC), increased", "setting": "[4]; [8]", "result": 26, "unit": "%"},
      {"measurement": "AUC, increase", "setting": "[4]; [9]", "result": "about 15%"},
      {"measurement": "Cmax, increase", "setting": "[4]; [9]", "result": "about 15%"},
      {"measurement": "renal excretion of GHB, increase", "setting": "[4]; upon co-administration of valproate", "result": 30, "unit": "%"},
      {"measurement": "PD effects", "setting": "[1]; GHB and diclofenac concomitantly administered", "result": "significantly reduced"},
      {"measurement": "Digit Vigilance Accuracy, change from baseline", "setting": "[1]; Xyrem co-dosed with diclofenac vs Xyrem alone, at 1 and 2.5 h", "result": "significantly less impairment than Xyrem® alone"},
      {"measurement": "Power of Attention, change from baseline", "setting": "[1]; Xyrem co-dosed with diclofenac vs Xyrem alone, at 1 and 4.5 h", "result": "narrowly missed significance"},
      {"measurement": "Power of Attention, change from baseline", "setting": "[1]; Xyrem co-dosed with diclofenac vs Xyrem alone, at 0.5 h", "result": "significantly less impairment than Xyrem® alone"},
      {"measurement": "Power of Attention, change from baseline", "setting": "[1]; Xyrem co-dosed with diclofenac vs diclofenac alone, 6.5 h and 8 h", "result": "impairments at two timepoints compared to diclofenac alone which at 6.5 h was significant and a trend at 8 h"},
      {"measurement": "Choice Reaction Time Mean, impairments", "setting": "[1]; in vivo", "result": "significantly smaller than with Xyrem® alone"},
      {"measurement": "Digit Vigilance Mean Reaction Time, change from baseline", "setting": "[1]; in vivo", "result": "significantly less impairment than Xyrem® alone"},
      {"measurement": "absorption into and elimination from the systemic circulation", "setting": "[5]", "result": "fast processes"},
      {"measurement": "unchanged drug recovered in the urine", "setting": "[5]", "result": "Virtually no unchanged drug could be recovered in the urine"},
      {"measurement": "oral absorption and elimination processes, dose dependency", "setting": "[6]", "result": "capacity-limited though the degree of dose dependency was moderate"},
      {"measurement": "plasma levels, lower", "setting": "[7]; GHB concomitantly administered with ibuprofen, statistically significant", "result": "~5", "unit": "%"},
      {"measurement": "renal excretion of GHB", "setting": "[7]; concomitant administration of ibuprofen", "result": "doubled"}
    ]}
  ]
}
